Laboratory results from US20240415819A1, “MACROCYCLIC COMPOUNDS AS PROTEASOME SUBUNIT BETA TYPE-5 INHIBITORS” (Lead Discovery Center GmbH, priority 2021, published 2024).

Legend:
[1] = target: T1, β5 subunit of the human constitutive proteasome (CPS) (Homo sapiens, UniProt P28074); test: β5 inhibition assay, human constitutive proteasome (Suc-LLVY-AMC); assay type: biochemical; details: IC50 class, Suc-LLVY-AMC substrate
T1 construct: purchased Boston Biochem E-360
Protocol: The enzymatic activity of the β5 subunit of the human constitutive proteasome (CPS) is analyzed. In another assay, which differs from the assay of the human constitutive proteasome only in using the human immunoproteasome (IPS) the enzymatic activity of the β5 subunit of the human immunoproteasome (IPS) is analyzed. […] Inhibition is indicated as IC50 [nM] (“-”=not measured).

[2] = test system: RPMI 8226 (B lymphocyte cell line, multiple myeloma); test: 48 hr CTG viability assay, RPMI 8226; assay type: cell-based; details: Homo sapiens, RPMI-8226; 48 hr CTG; read-out: RPMI-8226 IC50
Protocol: (§1) A viability assay was conducted for 48 hours to evaluate the inhibition of cancer cell growth by proteasome inhibitors. Briefly, the candidate cell line was plated with a 96-well plate following density of cells, respectively. 6×10^3 Cells/well for A2780 (human ovarian cancer cell line) and MDA-MB-468 (breast carcinoma), 8×10^3 Cells/well for Hs746T (human gastric carcinoma cell line), 1.1×10^4 Cells/well for MM1 S and RPMI 8226 (multiple myeloma). After 24 hours, the cells were treated with various concentrations of the compound (ranging from 0.0015 uM to 10 uM). […] After 48 hours of incubation at 37° C., 5% CO2 incubator, cells were analyzed for viability using the CellTiter-Glo Luminescent Cell Viability assay (Promega, Cat #G7570). All viability assays were performed in duplicate and Luminescence was read using an Envision (Perkin Elmer, USA). Data were analyzed using XLfit software. […] (human gastric carcinoma cell line), MM1 S (B lymphoblast cell line), and RPMI 8226 (B lymphocyte cell line, multiple myeloma). Inhibition is indicated as IC50 [nM] (“-”=not measured).

[3] = test system: Hs 746T (human gastric carcinoma cell line); test: 48 hr CTG viability assay, Hs 746T; assay type: cell-based; details: Hs746T, 48 hr CTG, read-out: Hs 746T IC50
Protocol: as §1

[4] = test system: MM1 S (B lymphoblast cell line); test: 48 hr CTG viability assay, MM1S; assay type: cell-based; details: Homo sapiens, 48 hr CTG, read-out: MM1S IC50
Protocol: as §1

[5] = target: T2, β5 subunit of the human immunoproteasome (IPS) (Homo sapiens, UniProt P28062); test: β5 inhibition assay, human immunoproteasome (Suc-LLVY-AMC); assay type: biochemical; details: IC50 class, Suc-LLVY-AMC substrate
T2 construct: purchased Boston Biochem E-370
How it was run: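 β5 activity is read as liberated AMC fluorescence (355/460 nm) after 4 h dark reaction at RT with 22.6 μM Suc-LLVY-AMC, stopped by 1 μM bortezomib. Beforehand, 1 nM human IPS and compound sat 10 min at RT in HEPES pH 7.5 buffer containing NaCl, 0.02% SDS and DTT.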

[6] = test system: A549 (human lung carcinoma cell line); test: Glo assay of A549 cells (Table 3; ProteasomeGlo plating scheme); assay type: cell-based; details: Homo sapiens; A549 cells; read-out: PGLo A549
How it was run: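 IC50 values (nM) come from a cell-based chymotrypsin-like Proteasome-Glo luminescence assay. Compound exposure ran 105 min at 37° C.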

Measured: IC50

Cc1ccc2cc1CNC(=O)[C@H](CCc1ccccc1)NC(=O)[C@@H](NC(=O)CCOC1CC1)CC(=O)N1CCCC(CCO2)C1 (stereo partly drawn) [Compound 597, 3-cyclopropoxy-N-((9S,12S)-5^4-methyl-8,11,14-trioxo-9-phenethyl-4-oxa-7,10-diaza-1(3,1)-piperidina-5(1,3)-benzenacyclotetradecaphane-12-yl)propanamide]
< 100 nM: all assays above

Cc1ccc2cc1CNC(=O)[C@H](CCc1ccccc1)NC(=O)[C@@H](NC(=O)C(F)(F)CN)CC(=O)N1CCCC(CCO2)C1 (stereo partly drawn) [Compound 598, 3-amino-2,2-difluoro-N-((9S,12S)-5^4-methyl-8,11,14-trioxo-9-phenethyl-4-oxa-7,10-diaza-1(3,1)-piperidina-5(1,3)-benzenacyclotetradecaphane-12-yl)propanamide]
< 100 nM: all assays above

Cc1ccc2cc1CNC(=O)[C@H](CCc1ccccc1)NC(=O)[C@@H](NS(=O)(=O)CC(F)(F)F)CC(=O)N1CCCC(CCO2)C1 (stereo partly drawn) [Compound 601, 2,2,2-trifluoro-N-((9S,12S)-5^4-methyl-8,11,14-trioxo-9-phenethyl-4-oxa-7,10-diaza-1(3,1)-piperidina-5(1,3)-benzenacyclotetradecaphane-12-yl)ethane-1-sulfonamide]
< 100 nM: all assays above

Cc1ccc2cc1CNC(=O)[C@H](C1Cc3ccccc3C1)NC(=O)[C@@H](NC(=O)Cc1cn3ccsc3n1)CC(=O)N1CCCC(CCO2)C1 (stereo partly drawn) [Compound 602, N-((9S,12S)-9-(2,3-dihydro-1H-inden-2-yl)-5^4-methyl-8,11,14-trioxo-4-oxa-7,10-diaza-1(3,1)-piperidina-5(1,3)-benzenacyclotetradecaphane-12-yl)-2-(imidazo[2,1-b]thiazol-6-yl)acetamide]
< 100 nM: all assays above

Cc1ccc2cc1CNC(=O)[C@H](CCc1ccccc1)NC(=O)[C@@H](NC(=O)CCNCc1ccc(-c3ccncc3)cc1)CC(=O)N1CCCC(CCO2)C1 (stereo partly drawn) [Compound 603, N-((9S,12S)-5^4-methyl-8,11,14-trioxo-9-phenethyl-4-oxa-7,10-diaza-1(3,1)-piperidina-5(1,3)-benzenacyclotetradecaphane-12-yl)-3-((4-(pyridin-4-yl)benzyl)amino)propanamide]
< 100 nM: all assays above

Cc1ccc2cc1CNC(=O)[C@H](CCc1ccccc1)NC(=O)[C@@H](NC(=O)CCNC(=O)c1ccc(N3CCOCC3)cc1)CC(=O)N1CCCC(CCO2)C1 (stereo partly drawn) [Compound 604, N-(3-(((9S,12S)-5^4-methyl-8,11,14-trioxo-9-phenethyl-4-oxa-7,10-diaza-1(3,1)-piperidina-5(1,3)-benzenacyclotetradecaphane-12-yl)amino)-3-oxopropyl)-4-morpholinobenzamide]
< 100 nM: all assays above

Cc1ccc2cc1CNC(=O)[C@H](CCc1ccccc1)NC(=O)[C@@H](NC(=O)C1CC3CCC(C1)N3C(=O)OC(C)(C)C)CC(=O)N1CCCC(CCO2)C1 (stereo partly drawn) [Compound 605, tert-butyl 3-(((9S,12S)-5^4-methyl-8,11,14-trioxo-9-phenethyl-4-oxa-7,10-diaza-1(3,1)-piperidina-5(1,3)-benzenacyclotetradecaphane-12-yl)carbamoyl)-8-azabicyclo[3.2.1]octane-8-carboxylate]
100 to 500 nM: [3]
< 100 nM: all other assays above

COc1ccc(CCCOCCC(=O)N[C@H]2CC(=O)N3CCCC(CCOc4ccc(C)c(c4)CNC(=O)[C@H](CCc4ccccc4)NC2=O)C3)cc1 (stereo partly drawn) [Compound 606, 3-(3-(4-methoxyphenyl)propoxy)-N-((9S,12S)-5^4-methyl-8,11,14-trioxo-9-phenethyl-4-oxa-7,10-diaza-1(3,1)-piperidina-5(1,3)-benzenacyclotetradecaphane-12-yl)propanamide]
< 100 nM: all assays above

COc1cccc(CCCOCCC(=O)N[C@H]2CC(=O)N3CCCC(CCOc4ccc(C)c(c4)CNC(=O)[C@H](CCc4ccccc4)NC2=O)C3)c1 (stereo partly drawn) [Compound 607, 3-(3-(3-methoxyphenyl)propoxy)-N-((9S,12S)-5^4-methyl-8,11,14-trioxo-9-phenethyl-4-oxa-7,10-diaza-1(3,1)-piperidina-5(1,3)-benzenacyclotetradecaphane-12-yl)propanamide]
< 100 nM: all assays above

Cc1ccc2cc1CNC(=O)[C@H](CCc1ccccc1)NC(=O)[C@@H](NC(=O)CCN1CCC3(CCCCC3)CC1)CC(=O)N1CCCC(CCO2)C1 (stereo partly drawn) [Compound 608, N-((9S,12S)-5^4-methyl-8,11,14-trioxo-9-phenethyl-4-oxa-7,10-diaza-1(3,1)-piperidina-5(1,3)-benzenacyclotetradecaphane-12-yl)-3-(3-azaspiro[5.5]undecan-3-yl)propanamide]
< 100 nM: all assays above

Cc1ccc2cc1CNC(=O)[C@H](CCc1ccccc1)NC(=O)[C@@H](NC(=O)C(C)(C)c1ccc3ncccc3c1)CC(=O)N1CCCC(CCO2)C1 (stereo partly drawn) [Compound 609, 2-methyl-N-((9S,12S)-5^4-methyl-8,11,14-trioxo-9-phenethyl-4-oxa-7,10-diaza-1(3,1)-piperidina-5(1,3)-benzenacyclotetradecaphane-12-yl)-2-(quinolin-6-yl)propanamide]
< 100 nM: all assays above

COc1ccc(CCOCCC(=O)N[C@H]2CC(=O)N3CCCC(CCOc4ccc(C)c(c4)CNC(=O)[C@H](CCc4ccccc4)NC2=O)C3)cc1 (stereo partly drawn) [Compound 610, 3-(4-methoxyphenethoxy)-N-((9S,12S)-5^4-methyl-8,11,14-trioxo-9-phenethyl-4-oxa-7,10-diaza-1(3,1)-piperidina-5(1,3)-benzenacyclotetradecaphane-12-yl)propanamide]
< 100 nM: all assays above

Cc1ccc2cc1CNC(=O)[C@H](CCc1ccccc1)NC(=O)[C@@H](NC(=O)CCN1CCC3(CCOCC3)CC1)CC(=O)N1CCCC(CCO2)C1 (stereo partly drawn) [Compound 611, N-((9S,12S)-5^4-methyl-8,11,14-trioxo-9-phenethyl-4-oxa-7,10-diaza-1(3,1)-piperidina-5(1,3)-benzenacyclotetradecaphane-12-yl)-3-(3-oxa-9-azaspiro[5.5]undecan-9-yl)propanamide]
< 100 nM: all assays above
